How the values were obtained:
Assay in all cases: Kinase selectivity screen
Format in all cases: biochemical
[1] = target: WNK1 (Homo sapiens, UniProt Q9H4A3); conditions: WNK1, 10 μM
Experimental: (§1) The substantially less demanding synthesis of ICL-CCIC-0019 compared with MN58B bears additional advantages. […] This consequently diminished intracellular PCho concentration, and importantly, the incorporation of [^3H]-choline into lipids (Figure 1D). […] To assess kinase specificity, ICL-CCIC-0019 was tested against a panel of 131 human kinases (Figure 1E and Supplementary Table S1). […] Inhibition greater than 20% was attained for insulin-like growth factor 1 (IGF-1R, 35 ± 7% inhibition), mitogen-activated protein kinase-activated protein kinase 3 (MAPKAP-K3, 33 ± 6%), extracellular signal regulated kinase 8 (ERK8, 31 ± 4%), ribosomal S6 kinase 1 (RSK1, 22 ± 6%), and v-erb-a erythroblastic leukemia viral oncogene homolog 4 (HER4, 21 ± 7%).

[2] = target: EIF2AK3 (Homo sapiens, UniProt Q9NZJ5); conditions: EIF2AK3, 10 μM
Sequence of EIF2AK3 (Q9NZJ5 30-1116): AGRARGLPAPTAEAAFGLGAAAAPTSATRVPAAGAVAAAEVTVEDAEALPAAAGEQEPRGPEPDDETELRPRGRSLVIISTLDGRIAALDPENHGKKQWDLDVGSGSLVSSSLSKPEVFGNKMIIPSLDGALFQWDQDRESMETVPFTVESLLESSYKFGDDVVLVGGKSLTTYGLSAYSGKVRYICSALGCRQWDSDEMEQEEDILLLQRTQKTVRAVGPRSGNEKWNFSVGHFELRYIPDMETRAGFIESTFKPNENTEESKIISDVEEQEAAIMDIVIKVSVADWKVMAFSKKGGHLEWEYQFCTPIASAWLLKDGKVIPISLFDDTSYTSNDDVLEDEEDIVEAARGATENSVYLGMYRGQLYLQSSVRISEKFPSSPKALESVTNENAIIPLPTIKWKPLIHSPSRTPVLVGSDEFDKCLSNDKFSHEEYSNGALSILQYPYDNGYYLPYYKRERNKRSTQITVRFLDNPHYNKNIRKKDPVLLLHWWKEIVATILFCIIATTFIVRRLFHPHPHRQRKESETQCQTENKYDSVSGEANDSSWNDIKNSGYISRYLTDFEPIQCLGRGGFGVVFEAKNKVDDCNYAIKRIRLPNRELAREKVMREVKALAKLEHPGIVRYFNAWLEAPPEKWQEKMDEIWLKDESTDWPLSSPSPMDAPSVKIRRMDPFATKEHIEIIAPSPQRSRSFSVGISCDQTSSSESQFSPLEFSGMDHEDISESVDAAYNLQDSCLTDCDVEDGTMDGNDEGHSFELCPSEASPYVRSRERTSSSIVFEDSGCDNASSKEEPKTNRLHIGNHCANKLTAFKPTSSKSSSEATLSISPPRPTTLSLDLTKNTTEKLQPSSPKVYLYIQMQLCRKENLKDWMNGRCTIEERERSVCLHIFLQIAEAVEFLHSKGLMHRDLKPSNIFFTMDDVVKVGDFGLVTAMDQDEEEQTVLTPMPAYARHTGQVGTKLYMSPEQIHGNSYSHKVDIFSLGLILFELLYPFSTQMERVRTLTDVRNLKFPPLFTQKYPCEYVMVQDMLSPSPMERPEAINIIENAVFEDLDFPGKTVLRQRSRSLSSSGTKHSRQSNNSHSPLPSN
Experimental: as §1

[3] = target: RSK2 (Homo sapiens, UniProt P51812); conditions: RSK2, 10 μM
Experimental: as §1

[4] = target: SIK3 (Homo sapiens, UniProt Q9Y2K2); conditions: SIK3, 10 μM
Experimental: as §1

[5] = target: NEK2a (Homo sapiens, UniProt P51955)
Experimental: as §1

[6] = target: JNK2 (Homo sapiens, UniProt P45984); conditions: JNK2, 10 μM
Experimental: as §1

[7] = target: Aurora A (Homo sapiens, UniProt O14965)
Experimental: as §1

[8] = target: PKCa (Homo sapiens, UniProt P17252)
Experimental: as §1

[9] = target: GSK3b (Homo sapiens, UniProt P49841)
Sequence of GSK3b (P49841 whole entry): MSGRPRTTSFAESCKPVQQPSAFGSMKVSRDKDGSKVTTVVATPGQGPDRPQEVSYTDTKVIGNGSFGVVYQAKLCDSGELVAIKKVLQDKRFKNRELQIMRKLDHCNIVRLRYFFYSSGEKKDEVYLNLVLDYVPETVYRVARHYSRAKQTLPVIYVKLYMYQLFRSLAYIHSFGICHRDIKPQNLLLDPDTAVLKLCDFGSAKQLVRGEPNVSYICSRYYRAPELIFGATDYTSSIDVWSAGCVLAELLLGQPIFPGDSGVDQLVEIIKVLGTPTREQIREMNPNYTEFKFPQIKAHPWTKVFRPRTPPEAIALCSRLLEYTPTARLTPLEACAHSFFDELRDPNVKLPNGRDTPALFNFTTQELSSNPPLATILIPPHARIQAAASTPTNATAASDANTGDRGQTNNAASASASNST
Experimental: as §1

[10] = target: MKK6 (Homo sapiens, UniProt P52564); conditions: MKK6, 10 μM
Experimental: as §1

[11] = target: DAPK1 (Homo sapiens, UniProt P53355); conditions: DAPK1, 10 μM
Experimental: as §1

[12] = target: CK1δ (Homo sapiens, UniProt P48730)
Experimental: as §1

[13] = target: EPH-B3 (Homo sapiens, UniProt P54753); conditions: EPH-B3, 10 μM
Experimental: as §1

[14] = target: PKD1 (Homo sapiens, UniProt Q15139); conditions: PKD1, 10 μM
Experimental: as §1

[15] = target: PRK2 (Homo sapiens, UniProt Q16513); conditions: PRK2, 10 μM
Experimental: as §1

[16] = target: IR (Homo sapiens, UniProt P06213)
Experimental: as §1

[17] = target: TIE2 (Homo sapiens, UniProt Q02763); conditions: TIE2, 10 μM
Sequence of TIE2 (Q02763 23-1124): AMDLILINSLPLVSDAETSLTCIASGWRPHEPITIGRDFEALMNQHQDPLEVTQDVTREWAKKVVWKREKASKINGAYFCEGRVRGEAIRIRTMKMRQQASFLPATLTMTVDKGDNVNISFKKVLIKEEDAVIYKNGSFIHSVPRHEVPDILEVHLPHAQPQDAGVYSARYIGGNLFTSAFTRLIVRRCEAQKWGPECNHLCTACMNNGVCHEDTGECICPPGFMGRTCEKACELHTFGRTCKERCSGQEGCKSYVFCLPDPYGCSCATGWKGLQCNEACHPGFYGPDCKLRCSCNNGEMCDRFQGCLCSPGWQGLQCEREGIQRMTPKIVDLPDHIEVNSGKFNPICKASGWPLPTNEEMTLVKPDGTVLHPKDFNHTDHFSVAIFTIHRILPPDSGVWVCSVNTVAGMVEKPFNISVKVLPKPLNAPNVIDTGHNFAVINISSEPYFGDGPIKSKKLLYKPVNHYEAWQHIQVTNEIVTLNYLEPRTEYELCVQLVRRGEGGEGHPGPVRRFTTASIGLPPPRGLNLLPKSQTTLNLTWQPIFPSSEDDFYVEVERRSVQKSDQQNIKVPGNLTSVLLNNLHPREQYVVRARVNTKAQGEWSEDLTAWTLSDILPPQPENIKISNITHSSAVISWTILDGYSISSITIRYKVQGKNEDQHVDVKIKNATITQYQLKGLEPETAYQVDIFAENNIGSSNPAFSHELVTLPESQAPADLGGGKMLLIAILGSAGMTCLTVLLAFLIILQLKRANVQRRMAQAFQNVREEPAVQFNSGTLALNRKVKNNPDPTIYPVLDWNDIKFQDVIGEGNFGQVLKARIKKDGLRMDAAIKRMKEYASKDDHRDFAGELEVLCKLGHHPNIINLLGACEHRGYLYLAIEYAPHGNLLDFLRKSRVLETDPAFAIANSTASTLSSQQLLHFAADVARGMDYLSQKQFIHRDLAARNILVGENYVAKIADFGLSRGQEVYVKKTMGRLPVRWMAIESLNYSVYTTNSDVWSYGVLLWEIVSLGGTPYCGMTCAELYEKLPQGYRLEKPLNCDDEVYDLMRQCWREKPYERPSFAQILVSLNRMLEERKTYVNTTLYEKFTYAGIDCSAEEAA
Experimental: as §1

[18] = target: JNK3 (Homo sapiens, UniProt P53779); conditions: JNK3, 10 μM
Sequence of JNK3 (P53779 whole entry): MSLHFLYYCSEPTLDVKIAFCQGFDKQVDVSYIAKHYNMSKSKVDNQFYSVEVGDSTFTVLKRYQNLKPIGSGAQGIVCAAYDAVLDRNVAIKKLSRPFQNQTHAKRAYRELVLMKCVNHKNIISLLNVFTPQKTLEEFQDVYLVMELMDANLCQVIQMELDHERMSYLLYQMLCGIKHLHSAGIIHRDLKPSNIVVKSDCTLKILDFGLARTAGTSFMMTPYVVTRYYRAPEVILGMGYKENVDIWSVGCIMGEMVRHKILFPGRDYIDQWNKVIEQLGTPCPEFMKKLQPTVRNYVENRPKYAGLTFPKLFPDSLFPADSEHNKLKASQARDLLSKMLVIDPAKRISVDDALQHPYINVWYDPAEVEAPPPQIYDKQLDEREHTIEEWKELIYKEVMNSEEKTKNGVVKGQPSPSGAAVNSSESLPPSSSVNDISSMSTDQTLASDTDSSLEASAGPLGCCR
Experimental: as §1

[19] = target: IRAK4 (Homo sapiens, UniProt Q9NWZ3); conditions: IRAK4, 10 μM
Experimental: as §1

[20] = target: SYK (Homo sapiens, UniProt P43405)
Experimental: as §1

[21] = target: DDR2 (Homo sapiens, UniProt Q16832); conditions: DDR2, 10 μM
Experimental: as §1

[22] = target: NEK6 (Homo sapiens, UniProt Q9HC98); conditions: NEK6, 10 μM
Experimental: as §1

[23] = target: RSK1 (Homo sapiens, UniProt Q15418); conditions: RSK1, 10 μM
Sequence of RSK1 (Q15418 whole entry): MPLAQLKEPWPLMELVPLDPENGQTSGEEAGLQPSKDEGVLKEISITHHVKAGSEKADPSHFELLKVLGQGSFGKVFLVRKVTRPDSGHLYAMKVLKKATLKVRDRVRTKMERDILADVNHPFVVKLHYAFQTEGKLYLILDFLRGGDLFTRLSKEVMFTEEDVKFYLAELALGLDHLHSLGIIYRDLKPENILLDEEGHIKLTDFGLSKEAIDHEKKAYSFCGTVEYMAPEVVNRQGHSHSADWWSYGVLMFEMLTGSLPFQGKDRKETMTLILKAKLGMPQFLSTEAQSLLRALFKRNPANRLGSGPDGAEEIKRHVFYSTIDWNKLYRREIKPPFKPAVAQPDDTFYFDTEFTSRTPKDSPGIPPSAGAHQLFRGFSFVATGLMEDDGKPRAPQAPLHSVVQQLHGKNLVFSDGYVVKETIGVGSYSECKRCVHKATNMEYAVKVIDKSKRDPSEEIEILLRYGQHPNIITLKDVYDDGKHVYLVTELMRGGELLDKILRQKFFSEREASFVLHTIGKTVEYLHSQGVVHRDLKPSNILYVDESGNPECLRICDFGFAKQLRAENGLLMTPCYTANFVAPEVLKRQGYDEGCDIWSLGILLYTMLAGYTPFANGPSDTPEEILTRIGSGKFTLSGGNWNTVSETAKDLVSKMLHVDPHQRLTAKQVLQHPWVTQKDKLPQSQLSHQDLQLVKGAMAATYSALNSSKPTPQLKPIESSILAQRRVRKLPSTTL
Experimental: as §1

[24] = target: IKKe (Homo sapiens, UniProt Q14164)
Sequence of IKKe (Q14164 whole entry): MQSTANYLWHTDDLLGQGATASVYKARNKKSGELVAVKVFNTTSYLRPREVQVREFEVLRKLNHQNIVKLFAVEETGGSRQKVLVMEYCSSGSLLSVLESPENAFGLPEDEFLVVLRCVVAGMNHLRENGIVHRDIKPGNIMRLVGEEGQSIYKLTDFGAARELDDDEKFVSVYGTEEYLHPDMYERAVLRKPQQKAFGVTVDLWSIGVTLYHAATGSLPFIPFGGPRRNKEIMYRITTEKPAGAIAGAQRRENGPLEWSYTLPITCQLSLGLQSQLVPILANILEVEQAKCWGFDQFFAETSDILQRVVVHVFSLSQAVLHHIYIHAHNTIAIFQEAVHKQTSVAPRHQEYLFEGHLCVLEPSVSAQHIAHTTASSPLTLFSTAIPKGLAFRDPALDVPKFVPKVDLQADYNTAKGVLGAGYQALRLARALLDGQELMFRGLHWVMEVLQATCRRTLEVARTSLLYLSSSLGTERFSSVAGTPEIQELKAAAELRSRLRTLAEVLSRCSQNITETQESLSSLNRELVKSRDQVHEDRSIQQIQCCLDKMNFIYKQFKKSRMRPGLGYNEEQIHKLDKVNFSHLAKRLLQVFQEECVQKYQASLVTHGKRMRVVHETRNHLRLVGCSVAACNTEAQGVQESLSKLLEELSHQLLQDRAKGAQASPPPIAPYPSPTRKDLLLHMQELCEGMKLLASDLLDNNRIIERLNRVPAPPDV
Experimental: as §1

[25] = target: CLK2 (Homo sapiens, UniProt P49760); conditions: CLK2, 10 μM
Experimental: as §1

[26] = target: MARK2 (Homo sapiens, UniProt Q7KZI7); conditions: MARK2, 10 μM
Experimental: as §1

[27] = target: PKCz (Homo sapiens, UniProt Q05513)
Experimental: as §1

[28] = target: JNK1 (Homo sapiens, UniProt P45983); conditions: JNK1, 10 μM
Experimental: as §1

[29] = target: JAK2 (Homo sapiens, UniProt O60674); conditions: JAK2, 10 μM
Experimental: as §1

[30] = target: MPSK1 (Homo sapiens, UniProt O75716); conditions: MPSK1, 10 μM
Experimental: as §1

[31] = target: MKK2 (Homo sapiens, UniProt P36507); conditions: MKK2, 10 μM
Experimental: as §1

[32] = target: Src (Homo sapiens, UniProt P12931)
Experimental: as §1

[33] = target: ERK8 (Homo sapiens, UniProt Q8TD08); conditions: ERK8, 10 μM
Sequence of ERK8 (Q8TD08 whole entry): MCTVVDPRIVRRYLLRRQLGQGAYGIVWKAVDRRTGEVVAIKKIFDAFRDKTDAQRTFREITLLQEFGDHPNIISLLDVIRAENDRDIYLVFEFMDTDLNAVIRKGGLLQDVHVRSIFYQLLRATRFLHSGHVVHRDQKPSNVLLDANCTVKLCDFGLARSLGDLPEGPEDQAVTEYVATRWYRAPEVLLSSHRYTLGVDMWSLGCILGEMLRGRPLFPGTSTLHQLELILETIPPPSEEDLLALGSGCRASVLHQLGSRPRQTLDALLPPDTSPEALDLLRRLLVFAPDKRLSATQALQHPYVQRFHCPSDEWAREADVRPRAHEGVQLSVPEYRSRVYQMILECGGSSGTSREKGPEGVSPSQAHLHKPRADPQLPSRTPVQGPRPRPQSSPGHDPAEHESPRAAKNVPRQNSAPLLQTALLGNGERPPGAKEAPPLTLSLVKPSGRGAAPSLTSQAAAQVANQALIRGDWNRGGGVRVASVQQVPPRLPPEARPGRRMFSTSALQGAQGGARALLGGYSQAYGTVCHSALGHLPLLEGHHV
Experimental: as §1

[34] = target: PRAK (Homo sapiens, UniProt Q8IW41)
Experimental: as §1

[35] = target: p38d MAPK (Homo sapiens, UniProt O15264)
Experimental: as §1

[36] = target: EPH-A4 (Homo sapiens, UniProt P54764); conditions: EPH-A4, 10 μM
Experimental: as §1

CN(C)c1cc[n+](CCCCCCCCCCCC[n+]2ccc(N(C)C)cc2)cc1 [ICL-CCIC-0019] was tested, and the remaining activity at 10 µM [1] was 102%, the remaining activity at 10 µM [2] was 97% and the remaining activity at 10 µM [3] was 105%. For the same molecule, the remaining activity at 10 µM [4] was 102%, the remaining activity at 10 µM [5] was 101% and the remaining activity at 10 µM [6] was 100%. For the same molecule, the remaining activity at 10 µM [7] was 98%, the remaining activity at 10 µM [8] was 98% and the remaining activity at 10 µM [9] was 94%. For the same molecule, the remaining activity at 10 µM [10] was 102%, the remaining activity at 10 µM [11] was 96% and the remaining activity at 10 µM [12] was 100%. The remaining activity at 10 µM [13] was 107%, the remaining activity at 10 µM [14] was 105% and the remaining activity at 10 µM [15] was 94%. The remaining activity at 10 µM [16] was 103%, the remaining activity at 10 µM [17] was 89% and the remaining activity at 10 µM [18] was 92%. For the same molecule, the remaining activity at 10 µM [19] was 83%, the remaining activity at 10 µM [20] was 92% and the remaining activity at 10 µM [21] was 85%. For the same molecule, the remaining activity at 10 µM [22] was 86%, the inhibition at 10 µM [23] was 22 ± 6% and the remaining activity at 10 µM [23] was 78%. For the same molecule, the remaining activity at 10 µM [24] was 123%, the remaining activity at 10 µM [25] was 101% and the remaining activity at 10 µM [26] was 86%. The remaining activity at 10 µM [27] was 106%, the remaining activity at 10 µM [28] was 98% and the remaining activity at 10 µM [29] was 90%. It also gave a remaining activity at 10 µM [30] of 105%, a remaining activity at 10 µM [31] of 95% and a remaining activity at 10 µM [32] of 105%. It also gave an inhibition at 10 µM [33] of 31 ± 4%, a remaining activity at 10 µM [33] of 69% and a remaining activity at 10 µM [34] of 101%. It also gave a remaining activity at 10 µM [35] of 100% and a remaining activity at 10 µM [36] of 124%.

From publication PMC5095062, “The novel choline kinase inhibitor ICL-CCIC-0019 reprograms cellular metabolism and inhibits cancer cell growth” (Oncotarget, 2016)
